Test in all cases: relative viability (nuclei count vs DMSO), 5 days (fraction); higher = more cells survive
Compound in the assay “Selumetinib + Dasatinib”: Cn1cnc2c(F)c(Nc3ccc(Br)cc3Cl)c(C(=O)NOCCO)cc21 [Selumetinib] + Cc1nc(Nc2ncc(C(=O)Nc3c(C)cccc3Cl)s2)cc(N2CCN(CCO)CC2)n1 [Dasatinib] (partner 0.075 µM)
The procedure, abridged: (§1)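 Nuclei were stained with Hoechst during a one-step fixation (final 0.05% Triton X-100, 1% formaldehyde, 1 ug/ml Hoechst) carried out 5 days after dosing, then counted on 4× images. The cells, lung cancer lines in 1536-well plates, had been dosed by pin tool the day after seeding with one drug alone or a fixed anchor-drug dose plus five library-drug doses (not always all listed) in √10 steps. Relative viability is the nuclei count in treated wells divided by that in vehicle wells, and each value is the median of duplicate plates.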

Compound in the assay “Venetoclax + Crizotinib”: CC1(C)CCC(CN2CCN(c3ccc(C(=O)NS(=O)(=O)c4ccc(NCC5CCOCC5)c([N+](=O)[O-])c4)c(Oc4cnc5[nH]ccc5c4)c3)CC2)=C(c2ccc(Cl)cc2)C1 [Venetoclax] + C[C@@H](Oc1cc(-c2cnn(C3CCNCC3)c2)cnc1N)c1c(Cl)ccc(F)c1Cl [Crizotinib] (partner 1 µM)
The gist of the method:
as §1

Compound in the assay “Selumetinib + Luminespib”: Cn1cnc2c(F)c(Nc3ccc(Br)cc3Cl)c(C(=O)NOCCO)cc21 [Selumetinib] + CCNC(=O)c1noc(-c2cc(C(C)C)c(O)cc2O)c1-c1ccc(CN2CCOCC2)cc1 [Luminespib] (partner 0.01 µM)
The gist of the method: as §1

Compound in the assay “Selumetinib + Navitoclax”: Cn1cnc2c(F)c(Nc3ccc(Br)cc3Cl)c(C(=O)NOCCO)cc21 [Selumetinib] + CC1(C)CCC(c2ccc(Cl)cc2)=C(CN2CCN(c3ccc(C(=O)NS(=O)(=O)c4ccc(N[C@H](CCN5CCOCC5)CSc5ccccc5)c(S(=O)(=O)C(F)(F)F)c4)cc3)CC2)C1 [Navitoclax] (partner 0.5 µM)
The gist of the method:
as §1

For SK-LU-1, the relative viability in the assay with Selumetinib + Dasatinib (first compound 0.02 µM) was 0.177; in the assay with Selumetinib + Dasatinib (first compound 0.06325 µM), 0.208; in the assay with Selumetinib + Dasatinib (first compound 0.2 µM) it was 0.181; with Selumetinib + Dasatinib (first compound 0.6325 µM) it was 0.141; in the assay with Venetoclax + Crizotinib (first compound 0.01 µM), 0.814; in the assay with Venetoclax + Crizotinib (first compound 0.03162 µM), 0.972. Besides, the relative viability in the assay with Venetoclax + Crizotinib (first compound 0.1 µM) came out at 0.763; with Venetoclax + Crizotinib (first compound 0.3162 µM) it was 0.983; with Venetoclax + Crizotinib (first compound 1 µM) it was 0.849; with Selumetinib + Luminespib (first compound 0.02 µM), 0.183; with Selumetinib + Luminespib (first compound 0.06325 µM) it was 0.17; in the assay with Selumetinib + Luminespib (first compound 0.2 µM), 0.178. For the same cell line, the relative viability was found to be 0.181 with Selumetinib + Luminespib (first compound 0.6325 µM); 0.795 in the assay with Selumetinib + Navitoclax (first compound 0.02 µM); 0.791 with Selumetinib + Navitoclax (first compound 0.06325 µM); 1.24 with Selumetinib + Navitoclax (first compound 0.2 µM); 0.268 with Selumetinib + Navitoclax (first compound 0.6325 µM).
For SK-MES-1, the relative viability worked out at 0.284 in the assay with Selumetinib + Dasatinib (first compound 0.02 µM); 0.271 in the assay with Selumetinib + Dasatinib (first compound 0.06325 µM); 0.235 with Selumetinib + Dasatinib (first compound 0.2 µM); 0.226 in the assay with Selumetinib + Dasatinib (first compound 0.6325 µM); 1.01 with Venetoclax + Crizotinib (first compound 0.01 µM); 1.08 in the assay with Venetoclax + Crizotinib (first compound 0.03162 µM). Besides, the relative viability with Venetoclax + Crizotinib (first compound 0.1 µM) was determined as 1.05; with Venetoclax + Crizotinib (first compound 0.3162 µM) it was 1.01; in the assay with Venetoclax + Crizotinib (first compound 1 µM), 0.843; in the assay with Selumetinib + Luminespib (first compound 0.02 µM), 0.74; with Selumetinib + Luminespib (first compound 0.06325 µM) it was 0.559; with Selumetinib + Luminespib (first compound 0.2 µM), 0.344. In addition, the relative viability with Selumetinib + Luminespib (first compound 0.6325 µM) amounted to 0.375; with Selumetinib + Navitoclax (first compound 0.02 µM), 1.41; with Selumetinib + Navitoclax (first compound 0.06325 µM), 1.32; in the assay with Selumetinib + Navitoclax (first compound 0.2 µM), 1.26; with Selumetinib + Navitoclax (first compound 0.6325 µM) it was 1.06.
On to SW 1573, for which the relative viability was 0.589 with Selumetinib + Dasatinib (first compound 0.02 µM); 0.362 with Selumetinib + Dasatinib (first compound 0.06325 µM); 0.534 with Selumetinib + Dasatinib (first compound 0.2 µM); 0.446 with Selumetinib + Dasatinib (first compound 0.6325 µM); 0.81 with Venetoclax + Crizotinib (first compound 0.01 µM); 0.808 in the assay with Venetoclax + Crizotinib (first compound 0.03162 µM). The relative viability is 0.752 in the assay with Venetoclax + Crizotinib (first compound 0.1 µM); 0.823 in the assay with Venetoclax + Crizotinib (first compound 0.3162 µM); 0.732 with Venetoclax + Crizotinib (first compound 1 µM); 0.207 in the assay with Selumetinib + Luminespib (first compound 0.02 µM); 0.168 in the assay with Selumetinib + Luminespib (first compound 0.06325 µM); 0.214 with Selumetinib + Luminespib (first compound 0.2 µM). Further, the relative viability in the assay with Selumetinib + Luminespib (first compound 0.6325 µM) worked out at 0.228; with Selumetinib + Navitoclax (first compound 0.02 µM), 0.965; in the assay with Selumetinib + Navitoclax (first compound 0.06325 µM), 0.853; with Selumetinib + Navitoclax (first compound 0.2 µM), 0.716; in the assay with Selumetinib + Navitoclax (first compound 0.6325 µM), 0.729.

These data come from the supplement of paper PMC10307832.
